Key:
[1] = tested on: amnesia in mice, as caused by scopolamine; experiment: CPAR, model of amnesia caused by scopolamine; type: in vivo; settings: for Latent time of entering into the dark chamber / Number of mice not entered into the dark chamber, % / Number of mice taught to CPAR (%): scopolamine 1 mg/kg i.p., Melatonin 5 mg, Memantin 10 mg mono-use; for Number of mice taught to CPAR (%): agents i.p. once a day for 5 days; for Effect on scopolamine amnesia of the skill (in words): summary of Tables 3-4
Description: (§1) For this, the active substances Melatonin 3 mg/Memantin 10 mg, Melatonin 5 mg/Memantin 20 mg, Melatonin 10 mg/Memantin 20 mg were taken, and doses recommended for human beings were converted into doses adapted for mice according to the formula “(active substance/70(average weight of a human being))×7”. Then the compositions were dissolved in 5 mL of the solution and, according to the given formula, introduced to animals intraperitoneally once a day for 5 days.
The CPAR test is the main model for evaluating substance influences on formation and replication of short-time memory in a normal condition and in an abnormal condition, i.e., induced amnesia. The CPAR is the most informative method among the methods that are used today for evaluating efficiency of substances with influence on the CNS of mammals (see, “Manual for Experimental (Pre-Clinical) Studies of New Pharmacological Substances”, 2000). The CPAR (conditioned passive avoidance reflex in a dark, light chamber) was taught to the mice on the basis of electrodermal response according to the method proposed by Cumin et al. (1982) with due regard to the recommendations given by Mondadori et al. (1990). The installation for mice, as produced by Lafayette Instrument Co., USA, was a black chamber with the electrode floor and a white plastic platform that was arranged on the floor in the center of the chamber. The mice, one by one, were put onto the plastic platform. The animals went/jumped down onto the electrode floor where they received an electric current shock, i.e., punishment. Electric current was supplied after the time when an animal stood on the floor with all its four legs. The natural response of the animals is to go back to the current-free or safe platform. […] Tests for memorizing CPAR were conducted in successive time intervals after amnesic action. In a case where an animal went/jumped down onto the platform within 1 minute, it was recorded as having retrograde amnesia of the passive avoidance skill. The compositions were studied in comparison with Melatonin 5 mg (mono-use) and Memantin 10 mg (mono-use), according to the above formula for adapting to animal models.
The compositions under study were dissolved in 5 mL of the solution and, according to the above formula, introduced to the animals intraperitoneally, once a day for 5 days.

[2] = tested on: amnesia in mice, as caused by electroconvulsive shock (ECS); experiment: Conditioned passive avoidance reflex (CPAR), amnesia caused by electroconvulsive shock (ECS); type: in vivo; settings: for Latent time of entering into the dark chamber / Number of mice not entered into the dark chamber, % / Number of mice taught to CPAR: + ECS, i.p. once a day for 5 days, Melatonin 5 mg, Memantin 10 mg mono-use; for Number of mice taught to CPAR: count of mice, human doses converted to mice; for Effect on the amnestic action of ECS (in words): summary of Tables 1-2, p<0.05 for the compositions
Description: as §1
The action of the compositions on learning and memory factors were studied on white non-linear male mice having a weight 20+/−4 g, using the conditioned passive avoidance reflex (CPAR) of electroconvulsive shock (ECS) (Ya. Buresh et al., 1991; K. M. Dyumaev et al., 1995).
Electroconvulsive shock (ECS) was used as the amnesic action, the electric current parameters were: 50 Hz, 50 mA, 0.3 s, which was applied to mice with the use of electrodes in the shape of clips fixed on auricles, transpineally, just after teaching CPAR (see, “Manual for Experimental (Pre-Clinical) Studies of New Pharmacological Substances”, 2000). Pseudo-electroconvulsive shock was caused to the animals by applying pineal electrodes for causing ECS without applying electric current. The mice were tested for maintaining CPAR in certain time intervals after ECS.
The CPAR test is the main model for evaluating substance influences on formation and replication of short-time memory in a normal condition and in an abnormal condition, i.e., induced amnesia. The CPAR is the most informative method among the methods that are used today for evaluating efficiency of substances with influence on the CNS of mammals (see, “Manual for Experimental (Pre-Clinical) Studies of New Pharmacological Substances”, 2000). The CPAR (conditioned passive avoidance reflex in a dark, light chamber) was taught to the mice on the basis of electrodermal response according to the method proposed by Cumin et al. (1982) with due regard to the recommendations given by Mondadori et al. (1990). The installation for mice, as produced by Lafayette Instrument Co., USA, was a black chamber with the electrode floor and a white plastic platform that was arranged on the floor in the center of the chamber. The mice, one by one, were put onto the plastic platform. The animals went/jumped down onto the electrode floor where they received an electric current shock, i.e., punishment. Electric current was supplied after the time when an animal stood on the floor with all its four legs. The natural response of the animals is to go back to the current-free or safe platform. After several minutes of teaching, 5 minutes on the average, mice developed CPAR and remained on the safe platform. Tests for memorizing CPAR were conducted in successive time intervals after amnesic action. In a case where an animal went/jumped down onto the platform within 1 minute, it was recorded as having retrograde amnesia of the passive avoidance skill. The compositions were studied in comparison with Melatonin 5 mg (mono-use) and Memantin 10 mg (mono-use), according to the above formula for adapting to animal models.

[3] = tested on: amnesia caused by acute normobaric hypoxic hypoxia with hypercapnia; experiment: Open-field method after acute normobaric hypoxic hypoxia with hypercapnia; type: in vivo, mice; settings: i.p. once a day for 5 days, Melatonin 5 mg, Memantin 10 mg mono-use
Description: as §1
The antiamnestic action of the compositions was also carried out on an model of amnesia caused by acute normobaric hypoxic hypoxia with hypercapnia in a so-called hermetic chamber on white non-linear male mice having a weight of 20-24 Γ with the CPAR development in the animals according to the open-field method. After CPAR teaching the animals were put in the hermetic chamber for 16-18 minutes, depending on manifestation of hypoxia symptoms and weight. This model was reproduced by placing mice, one by one, in glass jars of equal volume that were hermetically sealed. With consumption of oxygen its concentration in the jar air and in the organism lowered and the quantity of carbon dioxide, on the contrary, raised. As the result, acute hypoxic hypoxia with hypercapnia developed in the animals. The animals of the control group were subjected to false hypoxia, that is, the mice were put in glass jars of equal volume that were not closed. The substances under study and the sodium chloride isotonic solution (control) were used in comparison with Melatonin 5 mg (mono-use) and Memantin 10 mg (mono-use) in accordance with the above formula for adapting to animal models by intraperitoneal introduction, before teaching the mice, once a day for 5 days.

Row | Compound | Latent time of entering into the dark chamber ([1]; 1 day after teaching) [s] | Number of mice not entered into the dark chamber, % ([1]; 1 day after teaching) [%] | Latent time of entering into the dark chamber ([1]; 3 days after teaching) [s] | Number of mice not entered into the dark chamber, % ([1]; 3 days after teaching) [%] | Latent time of entering into the dark chamber ([1]; 7 days after teaching) [s] | Number of mice not entered into the dark chamber, % ([1]; 7 days after teaching) [%] | Latent time of entering into the dark chamber ([1]; 10 days after teaching) [s] | Number of mice not entered into the dark chamber, % ([1]; 10 days after teaching) [%] | Number of mice taught to CPAR (%) [1] [%] | Effect on scopolamine amnesia of the skill (in words) [1] | Latent time of entering into the dark chamber ([2]; 1 day after teaching) [s] | Number of mice not entered into the dark chamber, % ([2]; 1 day after teaching) [%] | Latent time of entering into the dark chamber ([2]; 3 days after teaching) [s] | Number of mice not entered into the dark chamber, % ([2]; 3 days after teaching) [%] | Latent time of entering into the dark chamber ([2]; 7 days after teaching) [s] | Number of mice not entered into the dark chamber, % ([2]; 7 days after teaching) [%] | Latent time of entering into the dark chamber ([2]; 10 days after teaching) [s] | Number of mice not entered into the dark chamber, % ([2]; 10 days after teaching) [%] | Number of mice taught to CPAR [2] | Effect on the amnestic action of ECS (in words) [2] | further results
1 | CC12CC3CC(C)(C1)CC(N)(C3)C2 [Memantin] | 110.8 ± 25.8 | 50 | 114.4 ± 18.2 | 60 | 111.1 ± 21.2 | 40 | 108.6 ± 18.7 | 40 | 70 | influenced on amnesia of the skill obtained, but insignificantly | 104.6 ± 19.2 | 36.3 | 109.5 ± 22.1 | 54.5 | 110.1 ± 18.9 | 63.6 | 109.8 ± 21.1 | 63.6 | 8 | changed the amnestic action | Horizontal motion activity ([3]; 1st day after operation): 7.1 ± 2.7; Inspection of holes ([3]; 1st day after operation): 2.1 ± 1.1; Vertical motion activity ([3]; 1st day after operation): 3.7 ± 1.9; Horizontal motion activity ([3]; 3rd day after operation): 8.9 ± 4.9; Inspection of holes ([3]; 3rd day after operation): 2.5 ± 1.1; Vertical motion activity ([3]; 3rd day after operation): 3.3 ± 1.2; Horizontal motion activity ([3]; 7th day after operation): 9.6 ± 3.4; Inspection of holes ([3]; 7th day after operation): 3.0 ± 2.7; Vertical motion activity ([3]; 7th day after operation): 3.7 ± 1.8; Horizontal motion activity ([3]; 10th day after operation): 11.3 ± 1.7; Inspection of holes ([3]; 10th day after operation): 3.2 ± 1.3; Vertical motion activity ([3]; 10th day after operation): 4.1 ± 2.5
2 | COc1ccc2[nH]cc(CCNC(C)=O)c2c1 [Melatonin, N-acetyl-5-methoxytriptamine] | 111.3 ± 15.7 | 58.3 | 107.4 ± 21.2 | 54.5 | 105.8 ± 17.4 | 45.4 | 101.2 ± 20.6 | 36.3 | 66.7 | influenced on amnesia of the skill obtained, but insignificantly | 108.3 ± 21.7 | 66.7 | 105.6 ± 17.4 | 58.3 | 103.3 ± 21.2 | 58.3 | 103.2 ± 20.6 | 33.3 | 9 | changed the amnestic action | Horizontal motion activity ([3]; 1st day after operation): 6.9 ± 2.3; Inspection of holes ([3]; 1st day after operation): 1.7 ± 0.6; Vertical motion activity ([3]; 1st day after operation): 3.2 ± 1.2; Horizontal motion activity ([3]; 3rd day after operation): 8.2 ± 1.4; Inspection of holes ([3]; 3rd day after operation): 1.9 ± 0.8; Vertical motion activity ([3]; 3rd day after operation): 3.5 ± 0.9; Horizontal motion activity ([3]; 7th day after operation): 8.3 ± 2.8; Inspection of holes ([3]; 7th day after operation): 2.4 ± 0.5; Vertical motion activity ([3]; 7th day after operation): 3.2 ± 1.3; Horizontal motion activity ([3]; 10th day after operation): 8.1 ± 1.7; Inspection of holes ([3]; 10th day after operation): 2.6 ± 2.9; Vertical motion activity ([3]; 10th day after operation): 3.6 ± 2.3

From patent publication US9999614B2, “Combination for the prophylaxis and treatment of behavioural, mental, and cognitive disorders” (LTD “VALENTA-INTELLEKT”, priority 2012, dated 2018)
